Laboratory results reported in US20260102420A1, “CANCER IMMUNOTHERAPY” (Hoffmann-La Roche Inc., priority 2022, published 2026).

Assays:
[1] = tested on: MKN45; experiment: T cell-mediated killing assay, MKN45 pre-treated with compound, co-culture with T cells and TCBs; type: cell-based, human; settings: MKN45 pre-treated 2 h, compound removed, T cells and TCBs added; FIGS. 9B and 9C
Protocol: (§1) FIGS. 9A, 9B, 9C, 9D, and 9E. UAP1 inhibition with Ac4Glc2Bz in tumor cells improves T cell-mediated killing and T cell activation. FIG. 9A: Detection of UDP-HexNAc in MKN45 cell lysates after 2h treatment with Ac4Glc2Bz. FIGS. 9B and 9C: MKN45 were pre-treated with the indicated concentrations of Ac4Glc2Bz for 2 h. Afterwards, the compound was removed from the culture and T cells were added alongside TCBs at the indicated concentrations. Graphs show the % of remaining tumor cells after 105h from co-culture. DP47 TCB was used as negative control. FIGS. 9D and 9E: Flow cytometry of CD3+ T cells from the experiments in FIGS. 9B and 9C. T cell activation was assessed as previously described.
25000 MKN45-nuclight red (NLR), 20000 A549-hCEA and 10000 B16F10-NLR tumor cells (wt or UAP1 ko) were seeded in one well of a 96 well-plate. Afterwards TCBs or siinfekl were given at the indicated concentrations. Pan T cells or PBMCs, mouse splenocytes (from C57/BL6 or OT-I mice) were immediately added at the indicated E:T ratios. Co-cultures were incubated at 37° C. and 5% C02 in the Incucye S3 instrument (Sartorius) for the indicated time. […] For MKN45-NLR and B16F10-NLR, T cell-mediated killing was calculated based on the red fluorescent signal coming from the tumor cells. All values were first transformed to fold-change to time 0, and % specific lysis was calculated as follows: […]

[2] = tested on: CD3+ T cells; experiment: T cell activation (CD25/CD69) by flow cytometry after co-culture with pre-treated MKN45; type: cell-based, human; settings: CD3+ T cells from the same co-cultures; FIGS. 9D and 9E
Protocol: as §1
T cell-mediated killing assay was performed as described above. At the end of the experiment, T cells were collected from the co-culture plates and subjected to immunofluorescence for the following markers: CD3, CD8, CD25, CD69 and Near-IR live/dead staining (Thermo Scientific). Cells were gated on live CD3^+ cells and % Activated cells was calculated as such: […]. For the proliferation assay, T cells were pre-stained with CFSE (Biolegend) according to manufacturer's instructions, and then used in a T cell-mediated killing assay with either MKN45-NLR wt or MKN45-NLR KO cells for 4 days. Afterwards, cells were harvested and CFSE was assessed by FACS. […]

[3] = target: T1, UAP1 (Homo sapiens, UniProt Q16222); experiment: Detection of UDP-HexNAc by LC-MS in MKN45 cell lysates after 2h treatment; type: cell-based; settings: MKN45 pre-treated for 2h, FIG. 9A
T1 construct: endogenous in cells; host or cells: MKN45 (human gastric adenocarcinoma cell line), wild type
Protocol: as §1
For the preparation of calibration samples Uridine-5′-diphospho-N-acetylglucosamine sodium salt was dissolved in an 80/20 mixture of water/methanol (v/v) to a concentration of 1.00 mg/ml. A stock solution for the preparation of QC samples was prepared separately using the same procedure with separate weighing of the reference substance. Further dilutions were done in water. For calibration and quality control samples, eight and three different concentrations of Uridine-5′-diphospho-N-acetylglucosamine (UDP HExNAc) spiked into phosphate-buffered saline (PBS) were used, respectively. Two different calibration ranges were applied. […]

T1 sequence (Q16222 whole entry): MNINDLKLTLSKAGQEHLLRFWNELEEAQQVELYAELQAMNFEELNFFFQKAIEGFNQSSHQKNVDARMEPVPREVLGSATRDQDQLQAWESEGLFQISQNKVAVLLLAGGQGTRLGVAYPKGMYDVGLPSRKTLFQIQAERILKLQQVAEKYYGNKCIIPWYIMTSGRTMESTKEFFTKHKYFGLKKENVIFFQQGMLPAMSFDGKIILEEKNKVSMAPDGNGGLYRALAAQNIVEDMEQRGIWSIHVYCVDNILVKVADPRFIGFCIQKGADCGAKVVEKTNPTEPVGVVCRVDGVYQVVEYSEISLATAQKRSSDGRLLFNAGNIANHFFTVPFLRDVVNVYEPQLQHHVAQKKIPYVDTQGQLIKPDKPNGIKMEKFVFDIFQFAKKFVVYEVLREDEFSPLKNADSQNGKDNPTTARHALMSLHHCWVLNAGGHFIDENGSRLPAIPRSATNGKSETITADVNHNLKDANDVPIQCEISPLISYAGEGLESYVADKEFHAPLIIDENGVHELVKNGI

inhibition of UAP1 (UDP-HexNAc detection) [3]: dose-dependent inhibition of UAP1
SMILES: CC(=O)OCC1OC(OC(C)=O)C(NC(=O)c2ccccc2)C(OC(C)=O)[C@@H]1OC(C)=O (stereo partly drawn) [Ac4Glc2Bz]
T cell mediated killing [1]: increased T cell mediated killing | T cell activation [2]: increased
